Data: PubChem BioAssay (NCI)
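Each compound was tested at five concentrations against cells in 96-well plates for 48 hours. TGI is the concentration that stops growth completely.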

Key:
Experiment in all cases: NCI tumour cell line growth inhibition, 48 h
CCRF-CEM leukemia = system: CCRF-CEM leukemia
SF-268 CNS = system: SF-268 CNS
MOLT-4 leukemia = system: MOLT-4 leukemia
MCF7 breast = system: MCF7 breast
SK-MEL-5 melanoma = system: SK-MEL-5 melanoma
OVCAR-8 ovarian = system: OVCAR-8 ovarian
SW-620 colon = system: SW-620 colon
PC-3 prostate = system: PC-3 prostate
HOP-62 NSCLC = system: HOP-62 NSCLC
HCT-15 colon = system: HCT-15 colon

## CSc1cc(Cl)c(C)cc1S(=O)(=O)NC(=O)NNc1ccccn1
CCRF-CEM leukemia
  TGI: > 100 µM
SF-268 CNS
  TGI: > 100 µM
MOLT-4 leukemia
  TGI: > 100 µM
MCF7 breast
  TGI: > 100 µM
SK-MEL-5 melanoma
  TGI: > 100 µM
OVCAR-8 ovarian
  TGI: > 100 µM
SW-620 colon
  TGI: > 100 µM
PC-3 prostate
  TGI: > 100 µM
HOP-62 NSCLC
  TGI: > 100 µM
HCT-15 colon
  TGI: > 100 µM

## Cc1ccc(NNc2cc(=O)[nH]c(=O)[nH]2)cc1Cl
CCRF-CEM leukemia
  TGI: 62.4 µM
SF-268 CNS
  TGI: > 100 µM
MOLT-4 leukemia
  TGI: 58.3 µM
SK-MEL-5 melanoma
  TGI: > 100 µM
SW-620 colon
  TGI: 28.2 µM
PC-3 prostate
  TGI: > 100 µM
HOP-62 NSCLC
  TGI: > 100 µM
HCT-15 colon
  TGI: 22.7 µM

## C=C(Br)C(Cl)(CBr)CCC(Br)C(C)(C)Cl (stereo not drawn)
CCRF-CEM leukemia
  TGI: > 10 µM
SF-268 CNS
  TGI: > 10 µM
MOLT-4 leukemia
  TGI: > 10 µM
MCF7 breast
  TGI: > 10 µM
SK-MEL-5 melanoma
  TGI: > 10 µM
OVCAR-8 ovarian
  TGI: > 10 µM
SW-620 colon
  TGI: > 10 µM
PC-3 prostate
  TGI: > 10 µM
HOP-62 NSCLC
  TGI: > 10 µM

## Cc1ccc(N2C(=O)CC(=O)N(NC(=O)C(C)Oc3ccccc3C)C2=S)cc1 (stereo not drawn)
CCRF-CEM leukemia
  TGI: 5.59 µM
SF-268 CNS
  TGI: > 100 µM
MOLT-4 leukemia
  TGI: > 100 µM
MCF7 breast
  TGI: > 100 µM
SK-MEL-5 melanoma
  TGI: > 100 µM
OVCAR-8 ovarian
  TGI: > 100 µM
SW-620 colon
  TGI: > 100 µM
PC-3 prostate
  TGI: > 100 µM
HOP-62 NSCLC
  TGI: > 100 µM
HCT-15 colon
  TGI: > 100 µM

## CN(C)CCCNC(=O)CNC(=O)c1cc(NC(=O)c2cc(NC(=O)c3cc(NC(=O)CCNC(=O)c4cc(NC(=O)c5cc(NC(=O)c6nccn6C)cn5C)cn4C)cn3C)cn2C)cn1C
CCRF-CEM leukemia
  TGI: 49.2 µM
SF-268 CNS
  TGI: > 100 µM
MOLT-4 leukemia
  TGI: 57 µM
MCF7 breast
  TGI: > 100 µM
SK-MEL-5 melanoma
  TGI: > 100 µM
OVCAR-8 ovarian
  TGI: > 100 µM
SW-620 colon
  TGI: > 100 µM
PC-3 prostate
  TGI: > 100 µM
HOP-62 NSCLC
  TGI: > 100 µM
HCT-15 colon
  TGI: > 100 µM

## CCC(/C=C/c1ccccc1)=N\NC(=S)N/N=C(/C=C/c1ccccc1)CC
CCRF-CEM leukemia
  TGI: > 100 µM
SF-268 CNS
  TGI: > 100 µM
MOLT-4 leukemia
  TGI: > 100 µM
MCF7 breast
  TGI: > 100 µM
SK-MEL-5 melanoma
  TGI: > 100 µM
OVCAR-8 ovarian
  TGI: 45.9 µM
SW-620 colon
  TGI: > 100 µM
PC-3 prostate
  TGI: > 100 µM
HOP-62 NSCLC
  TGI: > 100 µM
HCT-15 colon
  TGI: > 100 µM

## CCCC(=O)N[C@@H](Cc1cc(I)c(O)c(I)c1)C(=O)NCCCNCCCCNCCCNC(=O)[C@@H](N)CCCN=C(N)N
CCRF-CEM leukemia
  TGI: > 100 µM
MOLT-4 leukemia
  TGI: > 100 µM
SK-MEL-5 melanoma
  TGI: > 100 µM
OVCAR-8 ovarian
  TGI: > 100 µM
SW-620 colon
  TGI: > 100 µM
HOP-62 NSCLC
  TGI: > 100 µM
HCT-15 colon
  TGI: > 100 µM

## C/C(=N/NC(=S)N(Cc1ccccn1)Cc1ccccn1)c1cnccn1
CCRF-CEM leukemia
  TGI: > 100 µM
SF-268 CNS
  TGI: 14 µM
MOLT-4 leukemia
  TGI: > 34.4 µM
MCF7 breast
  TGI: > 100 µM
SK-MEL-5 melanoma
  TGI: > 37.9 µM
SW-620 colon
  TGI: 49.2 µM
PC-3 prostate
  TGI: 26 µM
HOP-62 NSCLC
  TGI: 14.6 µM
HCT-15 colon
  TGI: 87.1 µM

## O=C1NC(N/N=C/C(O)C(O)C(O)C(O)CO)=N/C1=C\c1cccs1 (stereo not drawn)
CCRF-CEM leukemia
  TGI: > 100 µM
SF-268 CNS
  TGI: > 100 µM
MOLT-4 leukemia
  TGI: > 100 µM
MCF7 breast
  TGI: > 100 µM
SK-MEL-5 melanoma
  TGI: > 100 µM
OVCAR-8 ovarian
  TGI: > 100 µM
SW-620 colon
  TGI: > 100 µM
PC-3 prostate
  TGI: > 100 µM
HOP-62 NSCLC
  TGI: > 100 µM
HCT-15 colon
  TGI: > 100 µM

## Cc1ccnc2c1c(=O)c1ccccc1n2C
CCRF-CEM leukemia
  TGI: > 100 µM
SF-268 CNS
  TGI: > 100 µM
MOLT-4 leukemia
  TGI: 73.8 µM
MCF7 breast
  TGI: > 100 µM
SK-MEL-5 melanoma
  TGI: 47.2 µM
OVCAR-8 ovarian
  TGI: > 100 µM
SW-620 colon
  TGI: > 100 µM
PC-3 prostate
  TGI: > 100 µM
HOP-62 NSCLC
  TGI: > 100 µM
HCT-15 colon
  TGI: > 100 µM

## CC1CSc2nc3[nH]c(=S)[nH]c3c(=O)n2C1 (stereo not drawn)
CCRF-CEM leukemia
  TGI: > 100 µM
SF-268 CNS
  TGI: > 100 µM
MOLT-4 leukemia
  TGI: > 100 µM
MCF7 breast
  TGI: > 100 µM
SK-MEL-5 melanoma
  TGI: > 100 µM
OVCAR-8 ovarian
  TGI: > 100 µM
SW-620 colon
  TGI: > 100 µM
HOP-62 NSCLC
  TGI: > 100 µM
HCT-15 colon
  TGI: > 100 µM

## C#CCSc1cnc2ccccc2c1Sc1c[nH]c2ccccc2c1=O
CCRF-CEM leukemia
  TGI: > 100 µM
SF-268 CNS
  TGI: > 100 µM
MOLT-4 leukemia
  TGI: > 100 µM
MCF7 breast
  TGI: > 100 µM
SK-MEL-5 melanoma
  TGI: 44.8 µM
OVCAR-8 ovarian
  TGI: > 100 µM
SW-620 colon
  TGI: > 100 µM
PC-3 prostate
  TGI: > 100 µM
HOP-62 NSCLC
  TGI: > 100 µM
HCT-15 colon
  TGI: > 100 µM

## C/C=C/OC1C(C2COC(C)(C)O2)OC2OC(C)(C)OC21 (stereo not drawn)
CCRF-CEM leukemia
  TGI: > 100 µM
SF-268 CNS
  TGI: > 100 µM
MOLT-4 leukemia
  TGI: > 100 µM
MCF7 breast
  TGI: > 100 µM
SK-MEL-5 melanoma
  TGI: > 100 µM
OVCAR-8 ovarian
  TGI: > 100 µM
SW-620 colon
  TGI: > 100 µM
PC-3 prostate
  TGI: > 100 µM
HOP-62 NSCLC
  TGI: > 100 µM
HCT-15 colon
  TGI: > 100 µM

## CC(C)(N=NC(C)(C)C1=NCCN1)C1=NCCN1
CCRF-CEM leukemia
  TGI: > 100 µM
SF-268 CNS
  TGI: > 100 µM
MOLT-4 leukemia
  TGI: > 100 µM
MCF7 breast
  TGI: > 100 µM
SK-MEL-5 melanoma
  TGI: > 100 µM
OVCAR-8 ovarian
  TGI: > 100 µM
SW-620 colon
  TGI: > 100 µM
PC-3 prostate
  TGI: > 100 µM
HOP-62 NSCLC
  TGI: > 100 µM
HCT-15 colon
  TGI: > 100 µM

## CC(=O)/C=C/c1c[nH]c(=O)[nH]c1=O
CCRF-CEM leukemia
  TGI: 649 µM
SF-268 CNS
  TGI: 720 µM
MOLT-4 leukemia
  TGI: 783 µM
MCF7 breast
  TGI: 516 µM
SK-MEL-5 melanoma
  TGI: 574 µM
OVCAR-8 ovarian
  TGI: 873 µM
SW-620 colon
  TGI: 696 µM
HOP-62 NSCLC
  TGI: 765 µM
HCT-15 colon
  TGI: 523 µM

## O=C(CN=C(CN(c1ccccc1)c1ccccc1)Oc1c([N+](=O)[O-])cc([N+](=O)[O-])cc1[N+](=O)[O-])N1CCNCC1
CCRF-CEM leukemia
  TGI: > 100 µM
SF-268 CNS
  TGI: > 100 µM
MOLT-4 leukemia
  TGI: > 100 µM
MCF7 breast
  TGI: > 100 µM
SK-MEL-5 melanoma
  TGI: > 100 µM
OVCAR-8 ovarian
  TGI: > 100 µM
SW-620 colon
  TGI: > 100 µM
PC-3 prostate
  TGI: > 100 µM
HOP-62 NSCLC
  TGI: > 100 µM
HCT-15 colon
  TGI: > 100 µM

## Cc1ccc(S(=O)(=O)OCC23CCC(C4CC42)C2CC23)cc1 (stereo not drawn)
CCRF-CEM leukemia
  TGI: > 100 µM
SF-268 CNS
  TGI: > 100 µM
MOLT-4 leukemia
  TGI: > 100 µM
SK-MEL-5 melanoma
  TGI: > 100 µM
OVCAR-8 ovarian
  TGI: > 100 µM
SW-620 colon
  TGI: > 100 µM
HOP-62 NSCLC
  TGI: > 100 µM
HCT-15 colon
  TGI: > 100 µM

## COc1ccc(C2c3cc4c(cc3OC(N3CCOCC3)C2C)OCO4)c(OC)c1 (stereo not drawn)
CCRF-CEM leukemia
  TGI: 38.1 µM
SF-268 CNS
  TGI: 53 µM
MOLT-4 leukemia
  TGI: 31.9 µM
MCF7 breast
  TGI: 33.8 µM
SK-MEL-5 melanoma
  TGI: 11.5 µM
OVCAR-8 ovarian
  TGI: > 74.7 µM
SW-620 colon
  TGI: 52.5 µM
PC-3 prostate
  TGI: > 100 µM
HOP-62 NSCLC
  TGI: 31.5 µM
HCT-15 colon
  TGI: > 75.9 µM

## COc1ccc(CN=C2Nc3ccncc3S(=O)(=O)N2c2ccccc2)cc1
CCRF-CEM leukemia
  TGI: 82.4 µM
SF-268 CNS
  TGI: > 100 µM
MOLT-4 leukemia
  TGI: 44.7 µM
MCF7 breast
  TGI: > 100 µM
SK-MEL-5 melanoma
  TGI: 47.2 µM
OVCAR-8 ovarian
  TGI: > 100 µM
SW-620 colon
  TGI: > 100 µM
PC-3 prostate
  TGI: > 100 µM
HOP-62 NSCLC
  TGI: > 100 µM
HCT-15 colon
  TGI: > 100 µM

## CC1C=C(NCC2(CO)CCC2)NC(N)=N1 (stereo not drawn)
CCRF-CEM leukemia
  TGI: > 100 µM
SF-268 CNS
  TGI: > 100 µM
MOLT-4 leukemia
  TGI: > 100 µM
MCF7 breast
  TGI: > 100 µM
SK-MEL-5 melanoma
  TGI: > 100 µM
OVCAR-8 ovarian
  TGI: > 100 µM
SW-620 colon
  TGI: > 100 µM
PC-3 prostate
  TGI: > 100 µM
HOP-62 NSCLC
  TGI: > 100 µM
HCT-15 colon
  TGI: > 100 µM

## O=C(/C=C/c1ccc(Cl)c(Cl)c1)CCN1CCN(CCC(=O)/C=C/c2ccc(Cl)c(Cl)c2)CC1
CCRF-CEM leukemia
  TGI: > 100 µM
SF-268 CNS
  TGI: > 100 µM
MOLT-4 leukemia
  TGI: > 100 µM
MCF7 breast
  TGI: 19.4 µM
SK-MEL-5 melanoma
  TGI: 38.2 µM
OVCAR-8 ovarian
  TGI: > 100 µM
SW-620 colon
  TGI: 52.1 µM
PC-3 prostate
  TGI: 57.1 µM
HOP-62 NSCLC
  TGI: 60.6 µM
HCT-15 colon
  TGI: 34.1 µM

## Cc1cc2nc3c(C(O)CO)nn(-c4ccccc4)c3nc2cc1C (stereo not drawn)
SF-268 CNS
  TGI: 63.3 µM
MOLT-4 leukemia
  TGI: > 100 µM
MCF7 breast
  TGI: 47.3 µM
SK-MEL-5 melanoma
  TGI: > 100 µM
OVCAR-8 ovarian
  TGI: 76.8 µM
SW-620 colon
  TGI: 55.4 µM
PC-3 prostate
  TGI: 32.7 µM
HOP-62 NSCLC
  TGI: 44 µM
HCT-15 colon
  TGI: 42.6 µM
